Measured values: ChEMBL document CHEMBL1149026, “Ohioensins and pallidisetins: novel cytotoxic agents from the moss Polytrichum pallidisetum” (1994)
Converted amounts (≈) assume the structure as drawn.

Experiments:
Type in all cases: functional
Conditions in all cases: read-out: ED50 (the source's name)
RPMI-7951 = experiment: Cytotoxicity against human RPMI7951 cells
U-251 = experiment: Cytotoxicity against human U251 cells
A549 = experiment: Cytotoxicity against human A549 cells
HT-29 = experiment: Cytotoxicity against human HT-29 cells

O=C(/C=C\c1ccccc1)c1cc(O)cc2c1CC(c1ccccc1)O2 (stereo not given) [PALLIDISETIN B]
EC50 (RPMI-7951): 2 µg/mL (≈ 5.84 µM) | EC50 (U-251): 2 µg/mL (≈ 5.84 µM)

O=C(/C=C/c1ccccc1)c1cc(O)cc2c1CC(c1ccccc1)O2 (stereo not given) [PALLIDISETIN A]
EC50 (RPMI-7951): 1 µg/mL (≈ 2.92 µM) | EC50 (U-251): 1 µg/mL (≈ 2.92 µM)

COc1cc(OC)c2c3c1-c1c(O)cccc1[C@@H]1Oc4ccccc4[C@@H](C[C@@H]2OC)[C@@H]31 [1,14-DI-O-METHYLDIHYDROOHIOENSIN B]
EC50 (RPMI-7951): 1 µg/mL (≈ 2.4 µM) | EC50 (A549): 1 µg/mL (≈ 2.4 µM)

COc1cc(OC)c2c3c1C(=O)C[C@@H]1c4ccccc4O[C@@H](c4cccc(O)c4-2)[C@H]31 [1-O-METHYLOHIOENSIN B]
EC50 (RPMI-7951): 1 µg/mL (≈ 2.5 µM) | EC50 (HT-29): 1 µg/mL (≈ 2.5 µM) | EC50 (U-251): 2 µg/mL (≈ 4.99 µM)

COc1cc(OC)c2c3c1-c1c(O)cccc1[C@@H]1Oc4ccccc4[C@@H](C[C@@H]2O)[C@@H]31 [1-O-METHYLDIHYDROOHIOENSIN B]
EC50 (U-251): 0.8 µg/mL (≈ 1.99 µM)
